{"source": "patent US7439250B2", "about": "“Compositions and methods related to fatty amino acid derivatives” (Board of Regents, The University of Texas System, priority 2002, dated 2008)", "key": {"[1]": {"assay": "pH sensitivity of liposomes: turbidity (absorbance at 400 nm) as a function of pH titration", "format": "physicochemical", "conditions": "samples (50 μl) in 3 ml PBS titrated with HCl; pH lowered from 4.5 to 3.5; DSPC samples extruded to 100 nm", "protocol": "FIG. 2 illustrates the absorbance change as a function of pH titration. Samples (50 μl) in 3 ml of PBS were titrated with HCl. The pH was measured and absorbence read at 400 nm.\nThe DSPC MLV samples were then processed by extrusion to form liposomes with diameters of 100 nm. The pH sensitivity of the liposomes were compared by monitoring turbidity at 400 nm as a function of pH. […] This feature of ALP may be useful in certain applications where pH plays a role."}, "[2]": {"assay": "Liposome preparation by lipid film rehydration, observed by light microscopy", "format": "physicochemical", "conditions": "PBS pH 7.2, 55° C.", "protocol": "Two ALPs of General Formula 1 were prepared, a) laurylaldehyde (X=O and R^1, R^2=C11H23) or b) (S,S)-(3-Octadecanoyl-6-oxo-2-undecyl-hexahydro-pyrimidine-4-carboxlic acid and tested for the ability to form liposomes and for its suitability as a component of liposomes containing phospholipids and cholesterol. Liposomes were prepared by mixing varying amounts of the phospholipid, distearoyl phosphatidylcholine (DSPC), cholesterol or ALP in chloroform. The chloroform was removed to form a thin lipid film. After vacuum desiccation overnight, each lipid formulation was rehydrated with phosphate buffered saline (PBS), pH 7.2, warmed to 55° C. (phase transition temperature of DSPC) and vortexed vigorously to form multilamellar liposomes (MLV). Aliquots of each MLV formulation were set aside and observed by light microscopy. DSPC MLV, DSPC MLV containing 10 mole % ALP, ALP lipid structures (3 mg/ml) and ALP lipid structures (30 mg/ml), respectively, were imaged."}}}
{"smiles": "CCCCCCCCCCCCCCCCCC(=O)N1[C@@H](CCCCCCCCCCC)NC(=O)C[C@H]1C(=O)O", "note": "[ALP]", "values": [{"measurement": "absorbance change at 400 nm as a function of pH (pH sensitivity)", "setting": "[1]", "result": "increased"}, {"measurement": "structures formed on rehydration (light microscopy)", "setting": "[2]; ALP alone at high concentrations (30 mg/ml)", "result": "crystal structures were evident"}, {"measurement": "structures formed on rehydration (light microscopy)", "setting": "[2]; ALP alone at low concentrations (3 mg/ml)", "result": "typically form liposomes"}]}
